Test results: patent US20250312352A1, “GLP-1R MODULATING COMPOUNDS” (Gilead Sciences, Inc., priority 2021, published 2025)

Biological target: T1, GLP-1R (Homo sapiens, UniProt P43220)
T1 construct: host or cells: CHO cells
Experiment: GLP-1R activation cAMP assay (Assay 1 or Assay 2)
Format: cell-based
Conditions: cAMP increase in CHO cells stably expressing GLP-1R; compounds run on one of the two cAMP assays
How it was run: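 CHO cells stably expressing human GLP-1R were incubated 1 h in HBSS/20 mM HEPES/0.1% BSA, then exposed to 10-point agonist dilutions for 30 min at 37 °C. cAMP increase was measured with an HTRF Gs dynamic kit; EC50 from sigmoidal fit of response versus log concentration.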

T1 sequence (P43220 24-463): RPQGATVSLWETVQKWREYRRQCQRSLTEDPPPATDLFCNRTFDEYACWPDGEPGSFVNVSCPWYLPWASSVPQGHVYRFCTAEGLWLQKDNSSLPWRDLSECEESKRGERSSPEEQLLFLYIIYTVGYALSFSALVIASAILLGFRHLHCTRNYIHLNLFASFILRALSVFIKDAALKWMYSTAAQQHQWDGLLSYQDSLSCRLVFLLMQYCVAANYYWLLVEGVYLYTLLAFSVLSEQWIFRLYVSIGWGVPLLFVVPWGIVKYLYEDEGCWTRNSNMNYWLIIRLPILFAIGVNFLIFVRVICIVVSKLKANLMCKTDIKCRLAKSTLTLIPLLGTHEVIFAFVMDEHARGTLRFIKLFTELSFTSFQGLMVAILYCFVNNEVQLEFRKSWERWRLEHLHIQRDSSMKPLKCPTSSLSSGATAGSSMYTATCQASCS

`O=C(O)c1ccc2nc(Cc3cc(F)c(-c4cccc(OCc5ccc(C#Cc6ccncc6)cc5F)n4)cc3F)n(C[C@@H]3CCO3)c2c1` [Example 140, (S)-2-(2,5-difluoro-4-(6-((2-fluoro-4-(pyridin-4-ylethynyl)benzyl)oxy)pyridin-2-yl)benzyl)-1-(oxetan-2-ylmethyl)-1H-benzo[d]imidazole-6-carboxylic acid] was tested. Which EC50 did it give?
The EC50 was 0.4 nM.

For `O=C(O)c1ccc2nc(Cc3cc(F)c(-c4cccc(OCc5ccc(C#Cc6nccs6)cc5F)n4)cc3F)n(C[C@@H]3CCO3)c2c1` [Example 141, (S)-2-(2,5-difluoro-4-(6-((2-fluoro-4-(thiazol-2-ylethynyl)benzyl)oxy)pyridin-2-yl)benzyl)-1-(oxetan-2-ylmethyl)-1H-benzo[d]imidazole-6-carboxylic acid], which EC50 is on record?
The EC50 was 0.33 nM.

With `Cn1cncc1C#Cc1ccc(COc2cccc(-c3cc(F)c(Cc4nc5ccc(C(=O)O)cc5n4C[C@@H]4CCO4)cc3F)n2)c(F)c1` [Example 142, (S)-2-(2,5-difluoro-4-(6-((2-fluoro-4-((1-methyl-1H-imidazol-5-yl)ethynyl)benzyl)oxy)pyridin-2-yl)benzyl)-1-(oxetan-2-ylmethyl)-1H-benzo[d]imidazole-6-carboxylic acid] as the compound, how does the EC50 read?
Its EC50 is 0.25 nM.

`Cn1cc(C#Cc2cnc(COc3cccc(-c4cc(F)c(Cc5nc6ccc(C(=O)O)cc6n5C[C@@H]5CCO5)cc4F)n3)c(F)c2)cn1` [Example 143, (S)-2-(2,5-difluoro-4-(6-((3-fluoro-5-((1-methyl-1H-pyrazol-4-yl)ethynyl)pyridin-2-yl)methoxy)pyridin-2-yl)benzyl)-1-(oxetan-2-ylmethyl)-1H-benzo[d]imidazole-6-carboxylic acid] was tested. Which EC50 did it give?
The EC50 was 0.14 nM.

For `Cn1cc(C#Cc2cc(F)c(COc3cccc(-c4cc(F)c(Cc5nc6ccc(C(=O)O)cc6n5C[C@@H]5CCO5)cc4F)n3)cn2)cn1` [Example 144, (S)-2-(2,5-difluoro-4-(6-((4-fluoro-6-((1-methyl-1H-pyrazol-4-yl)ethynyl)pyridin-3-yl)methoxy)pyridin-2-yl)benzyl)-1-(oxetan-2-ylmethyl)-1H-benzo[d]imidazole-6-carboxylic acid], which EC50 is on record?
Its EC50 is 0.99 nM.

For `COc1cc(C#Cc2cnn(C)c2)ncc1COc1cccc(-c2cc(F)c(Cc3nc4ccc(C(=O)O)cc4n3C[C@@H]3CCO3)cc2F)n1` [Example 145, (S)-2-(2,5-difluoro-4-(6-((4-methoxy-6-((1-methyl-1H-pyrazol-4-yl)ethynyl)pyridin-3-yl)methoxy)pyridin-2-yl)benzyl)-1-(oxetan-2-ylmethyl)-1H-benzo[d]imidazole-6-carboxylic acid], which EC50 is on record?
Its EC50 is 0.25 nM.

With `Cc1ncc(C#Cc2ccc(COc3cccc(-c4cc(F)c(Cc5nc6ccc(C(=O)O)cc6n5C[C@@H]5CCO5)cc4F)n3)c(F)c2)cn1` [Example 146, (S)-2-(2,5-difluoro-4-(6-((2-fluoro-4-((2-methylpyrimidin-5-yl)ethynyl)benzyl)oxy)pyridin-2-yl)benzyl)-1-(oxetan-2-ylmethyl)-1H-benzo[d]imidazole-6-carboxylic acid] as the compound, how does the EC50 read?
The EC50 was 0.09 nM.

`Cn1cc(C#Cc2ccc(COc3cccc(-c4cc(F)c(Cc5nc6ccc(C(=O)O)cc6n5C[C@@H]5CCO5)cc4F)n3)cn2)cn1` [Example 147, (S)-2-(2,5-difluoro-4-(6-((6-((1-methyl-1H-pyrazol-4-yl)ethynyl)pyridin-3-yl)methoxy)pyridin-2-yl)benzyl)-1-(oxetan-2-ylmethyl)-1H-benzo[d]imidazole-6-carboxylic acid] was tested. Which EC50 did it give?
Its EC50 is 0.6 nM.

Which EC50 does the source give for `Cn1ccnc1C#Cc1ccc(COc2cccc(-c3cc(F)c(Cc4nc5ccc(C(=O)O)cc5n4C[C@@H]4CCO4)cc3F)n2)c(F)c1` [Example 148, (S)-2-(2,5-difluoro-4-(6-((2-fluoro-4-((1-methyl-1H-imidazol-2-yl)ethynyl)benzyl)oxy)pyridin-2-yl)benzyl)-1-(oxetan-2-ylmethyl)-1H-benzo[d]imidazole-6-carboxylic acid] here?
Its EC50 is 0.51 nM.

Which EC50 does the source give for `Cc1ncc(C#Cc2ccc(COc3cccc(-c4cc(F)c(Cc5nc6ccc(C(=O)O)cc6n5C[C@@H]5CCO5)cc4F)n3)c(F)c2)n1C` [Example 149, (S)-2-(4-(6-((4-((1,2-dimethyl-1H-imidazol-5-yl)ethynyl)-2-fluorobenzyl)oxy)pyridin-2-yl)-2,5-difluorobenzyl)-1-(oxetan-2-ylmethyl)-1H-benzo[d]imidazole-6-carboxylic acid] here?
Its EC50 is 0.29 nM.

How did the EC50 turn out when `COCCn1c(Cc2ccc(-c3cccc(OCc4ccc(C#Cc5cnc(N6CC7CCC(C6)N7C6COC6)nc5)cc4F)n3)cc2F)nc2ccc(C(=O)O)cc21` [Example 150, 2-(2-fluoro-4-(6-((2-fluoro-4-((2-(8-(oxetan-3-yl)-3,8-diazabicyclo[3.2.1]octan-3-yl)pyrimidin-5-yl)ethynyl)benzyl)oxy)pyridin-2-yl)benzyl)-1-(2-methoxyethyl)-1H-benzo[d]imidazole-6-carboxylic acid] was run?
The EC50 was 10 nM.

How did the EC50 turn out when `Cn1cc(C#Cc2ccc(COc3cccc(-c4cc(F)c(Cc5nc6c(F)cc(C(=O)O)cc6n5C[C@@H]5CCO5)cc4F)n3)c(F)c2)cn1` [Example 151, (S)-2-(2,5-difluoro-4-(6-((2-fluoro-4-((1-methyl-1H-pyrazol-4-yl)ethynyl)benzyl)oxy)pyridin-2-yl)benzyl)-4-fluoro-1-(oxetan-2-ylmethyl)-1H-benzo[d]imidazole-6-carboxylic acid] was run?
The EC50 was 0.1 nM.

`O=C(O)c1cc(F)c2nc(Cc3cc(F)c(-c4cccc(OCc5ccc(C#Cc6cnc(N7CC8CCC(C7)N8C7COC7)nc6)cc5F)n4)cc3F)n(C[C@@H]3CCO3)c2c1` [Example 152, 2-(2,5-difluoro-4-(6-((2-fluoro-4-((2-(8-(oxetan-3-yl)-3,8-diazabicyclo[3.2.1]octan-3-yl)pyrimidin-5-yl)ethynyl)benzyl)oxy)pyridin-2-yl)benzyl)-4-fluoro-1-(((S)-oxetan-2-yl)methyl)-1H-benzo[d]imidazole-6-carboxylic acid] was tested. Which EC50 did it give?
The EC50 was 0.68 nM.

`Cc1cc(Cc2nc3c(F)cc(C(=O)O)cc3n2C[C@@H]2CCO2)c(F)cc1-c1cccc(OCc2ccc(C#Cc3cnn(C)c3)cc2F)n1` [Example 153, (S)-4-fluoro-2-(2-fluoro-4-(6-((2-fluoro-4-((1-methyl-1H-pyrazol-4-yl)ethynyl)benzyl)oxy)pyridin-2-yl)-5-methylbenzyl)-1-(oxetan-2-ylmethyl)-1H-benzo[d]imidazole-6-carboxylic acid] was tested. Which EC50 did it give?
Its EC50 is 0.36 nM.

How did the EC50 turn out when `Cn1cc(C#Cc2cnc(COc3cccc(-c4cc(F)c(Cc5nc6ccc(C(=O)O)cc6n5C[C@@H]5CCO5)cc4F)n3)nc2)cn1` [Example 154, (S)-2-(2,5-difluoro-4-(6-((5-((1-methyl-1H-pyrazol-4-yl)ethynyl)pyrimidin-2-yl)methoxy)pyridin-2-yl)benzyl)-1-(oxetan-2-ylmethyl)-1H-benzo[d]imidazole-6-carboxylic acid] was run?
The EC50 was 0.52 nM.

With `Cn1cc(C#Cc2cnc(COc3cccc(-c4cc(F)c(Cc5nc6ccc(C(=O)O)cc6n5C[C@@H]5CCO5)cc4F)n3)cn2)cn1` [Example 155, (S)-2-(2,5-difluoro-4-(6-((5-((1-methyl-1H-pyrazol-4-yl)ethynyl)pyrazin-2-yl)methoxy)pyridin-2-yl)benzyl)-1-(oxetan-2-ylmethyl)-1H-benzo[d]imidazole-6-carboxylic acid] as the compound, how does the EC50 read?
The EC50 was 0.83 nM.

Which EC50 does the source give for `Cn1cncc1C#Cc1cnc(COc2cccc(-c3cc(F)c(Cc4nc5ccc(C(=O)O)cc5n4C[C@@H]4CCO4)cc3F)n2)cn1` [Example 156, (S)-2-(2,5-difluoro-4-(6-((5-((1-methyl-1H-imidazol-5-yl)ethynyl)pyrazin-2-yl)methoxy)pyridin-2-yl)benzyl)-1-(oxetan-2-ylmethyl)-1H-benzo[d]imidazole-6-carboxylic acid] here?
The EC50 was 1.19 nM.

How did the EC50 turn out when `N#CC1(Cn2cc(-c3ccc(COc4cccc(-c5cc(F)c(Cc6nc7ccc(C(=O)O)cc7n6C[C@@H]6CCO6)cc5F)n4)c(F)c3)cn2)CC1` [Example 159, (S)-2-(4-(6-((4-(1-((1-cyanocyclopropyl)methyl)-1H-pyrazol-4-yl)-2-fluorobenzyl)oxy)pyridin-2-yl)-2,5-difluorobenzyl)-1-(oxetan-2-ylmethyl)-1H-benzo[d]imidazole-6-carboxylic acid] was run?
The EC50 was 0.18 nM.

With `O=C(O)c1ccc2nc(Cc3cc(F)c(-c4cccc(OCc5ccc(-c6cnc(C7CC7)o6)cc5F)n4)cc3F)n(C[C@@H]3CCO3)c2c1` [Example 160, (S)-2-(4-(6-((4-(2-cyclopropyloxazol-5-yl)-2-fluorobenzyl)oxy)pyridin-2-yl)-2,5-difluorobenzyl)-1-(oxetan-2-ylmethyl)-1H-benzo[d]imidazole-6-carboxylic acid] as the compound, how does the EC50 read?
The EC50 was 0.2 nM.

With `O=C(O)c1ccc2nc(Cc3cc(F)c(-c4cccc(OCc5cnc(-c6cnn(C7CC7)c6)cc5F)n4)cc3F)n(C[C@@H]3CCO3)c2c1` [Example 161, (S)-2-(4-(6-((6-(1-cyclopropyl-1H-pyrazol-4-yl)-4-fluoropyridin-3-yl)methoxy)pyridin-2-yl)-2,5-difluorobenzyl)-1-(oxetan-2-ylmethyl)-1H-benzo[d]imidazole-6-carboxylic acid] as the compound, how does the EC50 read?
The EC50 was 0.08 nM.

`O=C(O)c1ccc2nc(Cc3cc(F)c(-c4cccc(OCc5cnc(-c6cnn(C7COC7)c6)cc5F)n4)cc3F)n(C[C@@H]3CCO3)c2c1` [Example 162, (S)-2-(2,5-difluoro-4-(6-((4-fluoro-6-(1-(oxetan-3-yl)-1H-pyrazol-4-yl)pyridin-3-yl)methoxy)pyridin-2-yl)benzyl)-1-(oxetan-2-ylmethyl)-1H-benzo[d]imidazole-6-carboxylic acid] was tested. Which EC50 did it give?
Its EC50 is 0.16 nM.

How did the EC50 turn out when `Cc1cc(Cc2nc3c(F)cc(C(=O)O)cc3n2C[C@@H]2CCO2)c(F)cc1-c1cccc(OCc2cnc(-c3cnn(C4CC4)c3)cc2Cl)n1` [Example 163, (S)-2-(4-(6-((4-chloro-6-(1-cyclopropyl-1H-pyrazol-4-yl)pyridin-3-yl)methoxy)pyridin-2-yl)-2-fluoro-5-methylbenzyl)-4-fluoro-1-(oxetan-2-ylmethyl)-1H-benzo[d]imidazole-6-carboxylic acid] was run?
Its EC50 is 0.7 nM.
